Reference: US7683092B2, “Crystalline forms of antidiabetic compounds” (Merck Sharp & Dohme Corp., priority 2005, dated 2010)

What was measured:
[1] = Thermodynamic stability of crystal forms; settings: among free acid crystal forms of Compound II
[2] = Hygroscopicity of the crystalline form; assay type: physicochemical; settings: solid crystalline form

With CC[C@@H](Oc1cccc(Cn2c(C)c(C(=O)c3ccc(Cl)cc3)c3ccc(OC(F)(F)F)cc32)c1)C(=O)O [Acid Form C, (2R)-2-{3-[[3-(4-chlorobenzoyl)-2-methyl-6-(trifluoromethoxy)-1H-indol-1-yl]methyl]phenoxy}butyric acid] as the compound, how does the “thermodynamic stability of crystal form” value [1] read?
The value was “thermodynamically stable”.

What about the “thermodynamic stability of crystal form” value ([1]; listed as Form C free acid) of the same compound?
Its value is “most thermodynamically stable acid form”.

For CC[C@@H](Oc1cccc(-n2c(C)c(C(=O)c3ccc(OC)cc3)c3ccc(OC(F)(F)F)cc32)c1)C(=O)O [crystalline dihydrate, (2R)-2-{3-[3-(4-methoxybenzoyl)-2-methyl-6-(trifluoromethoxy)-1H-indol-1-yl]phenoxy}butanoic acid], which hygroscopicity [2] is on record?
Its hygroscopicity is “non-hygroscopic”.
